The subject of one experiment is MOLT-4. The experiment can be described thus: Cell viability assay (MTS) in MOLT-4 cells. Type of experiment: cell-based. The note with it: Homo sapiens, MOLT-4. The procedure:
(§1) Acute lymphoblastic leukemia cells (MOLT-4 and RS4; 11) were incubated with increasing concentrations of Bcl-xL degraders for 48 h. Cell viability was measured by tetrazolium-based MTS assay.

Another experiment relates to RS4; 11. Nature of the experiment: Cell viability assay (MTS) in RS4; 11 cells. The note with it: Homo sapiens, RS4-11. Type of experiment: cell-based. The procedure:
as §1

The mark [1] stands for this setting: Table 2, 48 hr, MTS, read-out: Anti-Cancer Activity IC50 (48 hr) MOLT-4.
[2] abbreviates: Table 2, 48 hr, MTS, read-out: Anti-Cancer Activity IC50 (48 hr) RS4, 11.
[3] abbreviates: Table 4, 48 h, read-out: MOLT-4 48 h IC50.
Setting [4] is: Table 4, 48 h, read-out: RS4 48 h IC50.

The structures appear in SMILES notation. pIC50: −log10 of the molar value. Read-outs that look alike come from different tables or passages of the source.

What is called pIC50 is the negative decadic logarithm of the IC50, by convention in mol/L. Turning to `Cc1ncsc1-c1ccc([C@H](C)NC(=O)[C@@H]2C[C@@H](O)CN2C(=O)[C@@H](NC(=O)CCCCCCC(=O)N2CCC(C3CCN(CC4(C)CCC(c5ccc(Cl)cc5)=C(CN5CCN(c6ccc(C(=O)NS(=O)(=O)c7ccc(N[C@H](CCN8C[C@H]9C[C@@H]8CO9)CSc8ccccc8)c(S(=O)(=O)C(F)(F)F)c7)cc6)CC5)C4)CC3)CC2)C(C)(C)C)cc1` (stereo partly shown) [Compound 70], the negative-log IC50 (pIC50) with MOLT-4 (setting [1]) and in the experiment on RS4; 11 (setting [2]) was more than 7.70 throughout.
Consider `Cc1ncsc1-c1ccc([C@H](C)NC(=O)[C@@H]2C[C@@H](O)CN2C(=O)[C@@H](NC(=O)CCCCCCC(=O)N2CCN(C[C@]3(C)CCC(c4ccc(Cl)cc4)=C(CN4CCN(c5ccc(C(=O)NS(=O)(=O)c6ccc(N[C@H](CCN7CCc8cccnc8C7)CSc7ccccc7)c(S(=O)(=O)C(F)(F)F)c6)cc5)CC4)C3)CC2)C(C)(C)C)cc1` [Compound 71], for which the pIC50 is 6.30 to 7.00 with MOLT-4 (setting [1]) and 7.00 to 7.70 in the experiment on RS4; 11 (setting [2]).
Turning to `Cc1ncsc1-c1ccc([C@H](C)NC(=O)[C@@H]2C[C@@H](O)CN2C(=O)[C@@H](NC(=O)CCCCCNC(=O)c2ccc(N3CCN(C[C@]4(C)CCC(c5ccc(Cl)cc5)=C(CN5CCN(c6ccc(C(=O)NS(=O)(=O)c7ccc(N[C@H](CCN8C[C@H]9C[C@@H]8CO9)CSc8ccccc8)c(S(=O)(=O)C(F)(F)F)c7)cc6)CC5)C4)CC3)nc2)C(C)(C)C)cc1` [Compound 72], the pIC50 in the experiment on MOLT-4 (setting [1]) is more than 7.70; in the experiment with MOLT-4 (setting [3]), 8.36; in the experiment on RS4; 11 (setting [2]), more than 7.70; in the experiment on RS4; 11 (setting [4]) it was 8.15.
As for `Cc1ncsc1-c1ccc([C@H](C)NC(=O)[C@@H]2C[C@@H](O)CN2C(=O)[C@@H](NC(=O)CCCCCCNC(=O)c2ccc(N3CCN(C[C@]4(C)CCC(c5ccc(Cl)cc5)=C(CN5CCN(c6ccc(C(=O)NS(=O)(=O)c7ccc(N[C@H](CCN8C[C@H]9C[C@@H]8CO9)CSc8ccccc8)c(S(=O)(=O)C(F)(F)F)c7)cc6)CC5)C4)CC3)nc2)C(C)(C)C)cc1` [Compound 73], the pIC50 in the experiment with MOLT-4 (setting [1]) was more than 7.70; in the experiment with MOLT-4 (setting [3]), 8.15; in the experiment on RS4; 11 (setting [2]) it was more than 7.70; in the experiment with RS4; 11 (setting [4]), 7.86.
Turning to `Cc1ncsc1-c1ccc([C@H](C)NC(=O)[C@@H]2C[C@@H](O)CN2C(=O)[C@@H](NC(=O)CCCCCCCNC(=O)c2ccc(N3CCN(C[C@]4(C)CCC(c5ccc(Cl)cc5)=C(CN5CCN(c6ccc(C(=O)NS(=O)(=O)c7ccc(N[C@H](CCN8C[C@H]9C[C@@H]8CO9)CSc8ccccc8)c(S(=O)(=O)C(F)(F)F)c7)cc6)CC5)C4)CC3)nc2)C(C)(C)C)cc1` [Compound 74], the pIC50 is more than 7.70 in the experiment on MOLT-4 (setting [1]) and 7.00 to 7.70 in the experiment on RS4; 11 (setting [2]).
The corresponding values for `Cc1ncsc1-c1ccc([C@H](C)NC(=O)[C@@H]2C[C@@H](O)CN2C(=O)[C@@H](NC(=O)CC2CCN(CC(=O)N3CCN(C[C@]4(C)CCC(c5ccc(Cl)cc5)=C(CN5CCN(c6ccc(C(=O)NS(=O)(=O)c7ccc(N[C@H](CCN8CCCOCC8)CSc8ccccc8)c(S(=O)(=O)C(F)(F)F)c7)cc6)CC5)C4)CC3)CC2)C(C)(C)C)cc1` [Compound 75] are 7.00 to 7.70 and 7.00 to 7.70.
As to `Cc1ncsc1-c1ccc([C@H](C)NC(=O)[C@@H]2C[C@@H](O)CN2C(=O)[C@@H](NC(=O)CN2CCC(CC(=O)N3CCN(C[C@]4(C)CCC(c5ccc(Cl)cc5)=C(CN5CCN(c6ccc(C(=O)NS(=O)(=O)c7ccc(N[C@H](CCN8CCCOCC8)CSc8ccccc8)c(S(=O)(=O)C(F)(F)F)c7)cc6)CC5)C4)CC3)CC2)C(C)(C)C)cc1` [Compound 76], the pIC50 in the experiment with MOLT-4 (setting [1]) and in the experiment on RS4; 11 (setting [2]) was more than 7.70 throughout.
On to `Cc1ncsc1-c1ccc([C@H](C)NC(=O)[C@@H]2C[C@@H](O)CN2C(=O)[C@@H](NC(=O)CCCCCNC(=O)c2cnc(N3CCN(C[C@]4(C)CCC(c5ccc(Cl)cc5)=C(CN5CCN(c6ccc(C(=O)NS(=O)(=O)c7ccc(N[C@H](CCN8CCCOCC8)CSc8ccccc8)c(S(=O)(=O)C(F)(F)F)c7)cc6)CC5)C4)CC3)nc2)C(C)(C)C)cc1` [Compound 78], for which the figures for the pIC50 in the experiment on MOLT-4 (setting [1]) and in the experiment on RS4; 11 (setting [2]) were more than 7.70 and 7.00 to 7.70, respectively.
In the same order, the values of `Cc1ncsc1-c1ccc([C@H](C)NC(=O)[C@@H]2C[C@@H](O)CN2C(=O)[C@@H](NC(=O)CCCCCNC(=O)c2ccc(N3CCN(C[C@]4(C)CCC(c5ccc(Cl)cc5)=C(CN5CCN(c6ccc(C(=O)NS(=O)(=O)c7ccc(N[C@H](CCN8CCCOCC8)CSc8ccccc8)c(S(=O)(=O)C(F)(F)F)c7)cc6)CC5)C4)CC3)nn2)C(C)(C)C)cc1` [Compound 79] are more than 7.70 and more than 7.70.
For `Cc1ncsc1-c1ccc([C@H](C)NC(=O)[C@@H]2C[C@@H](O)CN2C(=O)[C@@H](NC(=O)CCCCCNC(=O)c2ccc(CN3CCN(C[C@]4(C)CCC(c5ccc(Cl)cc5)=C(CN5CCN(c6ccc(C(=O)NS(=O)(=O)c7ccc(N[C@H](CCN8CCCOCC8)CSc8ccccc8)c(S(=O)(=O)C(F)(F)F)c7)cc6)CC5)C4)CC3)nc2)C(C)(C)C)cc1` [Compound 80], the pIC50 in the experiment on MOLT-4 (setting [1]) and in the experiment with RS4; 11 (setting [2]) was more than 7.70 throughout.
As to `Cc1ncsc1-c1ccc([C@H](C)NC(=O)[C@@H]2C[C@@H](O)CN2C(=O)[C@@H](NC(=O)CCCCCCC(=O)N2CCN(C[C@]3(C)CCC(c4ccc(Cl)cc4)=C(CN4CCN(c5ccc(C(=O)NS(=O)(=O)c6ccc(N[C@H](CCN7CCCOCC7)CSc7ccccc7)c(S(=O)(=O)C(F)(F)F)c6)cc5)CC4)C3)C[C@H]2C)C(C)(C)C)cc1` [Compound 81], the pIC50 in the experiment with MOLT-4 (setting [1]) and with RS4; 11 (setting [2]) was more than 7.70 each time.
With `Cc1ncsc1-c1ccc([C@H](C)NC(=O)[C@@H]2C[C@@H](O)CN2C(=O)[C@@H](NC(=O)CCCCCCC(=O)N2CCN(C[C@]3(C)CCC(c4ccc(Cl)cc4)=C(CN4CCN(c5ccc(C(=O)NS(=O)(=O)c6ccc(N[C@H](CCN7CCCOCC7)CSc7ccccc7)c(S(=O)(=O)C(F)(F)F)c6)cc5)CC4)C3)C[C@@H]2C)C(C)(C)C)cc1` [Compound 82], the pIC50 in the experiment on MOLT-4 (setting [1]) was more than 7.70; with RS4; 11 (setting [2]) it was 7.00 to 7.70.
The corresponding values for `Cc1ncsc1-c1ccc([C@H](C)NC(=O)[C@@H]2C[C@@H](O)CN2C(=O)[C@@H](NC(=O)CCCCCCC(=O)N2CCN(C[C@]3(C)CCC(c4ccc(Cl)cc4)=C(CN4CCN(c5ccc(C(=O)NS(=O)(=O)c6ccc(N[C@H](CCN7CCCC(F)(F)C7)CSc7ccccc7)c(S(=O)(=O)C(F)(F)F)c6)cc5)CC4)C3)CC2)C(C)(C)C)cc1` [Compound 88] are 5.00 to 6.30 and 5.00 to 6.30.
The corresponding values for `Cc1ncsc1-c1ccc([C@H](C)NC(=O)[C@@H]2C[C@@H](O)CN2C(=O)[C@@H](NC(=O)CCCCCCC(=O)N2CCN(C[C@]3(C)CCC(c4ccc(Cl)cc4)=C(CN4CCN(c5ccc(C(=O)NS(=O)(=O)c6ccc(N[C@H](CCN7CCOC[C@H]7C)CSc7ccccc7)c(S(=O)(=O)C(F)(F)F)c6)cc5)CC4)C3)CC2)C(C)(C)C)cc1` [Compound 89, (2S,4R)-1-((S)-2-(8-(4-(((R)-4′-chloro-4-methyl-6-((4-(4-(((4-(((R)-4-((R)-3-methylmorpholino)-1-(phenylthio)butan-2-yl)amino)-3-((trifluoromethyl)sulfonyl)phenyl)sulfonyl)carbamoyl)phenyl)piperazin-1-yl)methyl)-2,3,4,5-tetrahydro-[1,1′-biphenyl]-4-yl)methyl)piperazin-1-yl)-8-oxooctanamido)-3,3-dimethylbutanoyl)-4-hydroxy-N—((S)-1-(4-(4-methylthiazol-5-yl)phenyl)ethyl)pyrrolidine-2-carboxamide] are 7.00 to 7.70 and more than 7.70.
Turning to `Cc1ncsc1-c1ccc([C@H](C)NC(=O)[C@@H]2C[C@@H](O)CN2C(=O)[C@@H](NC(=O)CCCCCCC(=O)N2CCN(C[C@]3(C)CCC(c4ccc(Cl)cc4)=C(CN4CCN(c5ccc(C(=O)NS(=O)(=O)c6ccc(N[C@H](CCN7CCOC(C)C7)CSc7ccccc7)c(S(=O)(=O)C(F)(F)F)c6)cc5)CC4)C3)CC2)C(C)(C)C)cc1` (stereo partly drawn) [Compound 91, (2S,4R)-1-((2S)-2-(8-(4-(((4R)-4′-chloro-4-methyl-6-((4-(4-(((4-(((2R)-4-(2-methylmorpholino)-1-(phenylthio)butan-2-yl)amino)-3-((trifluoromethyl)sulfonyl)phenyl)sulfonyl)carbamoyl)phenyl)piperazin-1-yl)methyl)-2,3,4,5-tetrahydro-[1,1′-biphenyl]-4-yl)methyl)piperazin-1-yl)-8-oxooctanamido)-3,3-dimethylbutanoyl)-4-hydroxy-N—((S)-1-(4-(4-methylthiazol-5-yl)phenyl)ethyl)pyrrolidine-2-carboxamide], the pIC50 with MOLT-4 (setting [1]) and in the experiment on RS4; 11 (setting [2]) was more than 7.70 each time.
For the compound `Cc1ncsc1-c1ccc([C@H](C)NC(=O)[C@@H]2C[C@@H](O)CN2C(=O)[C@@H](NC(=O)CCCCCCC(=O)N2CCN(C[C@]3(C)CCC(c4ccc(Cl)cc4)=C(CN4CCN(c5ccc(C(=O)NS(=O)(=O)c6ccc(N[C@H](CCN7CCOCC78CC8)CSc7ccccc7)c(S(=O)(=O)C(F)(F)F)c6)cc5)CC4)C3)CC2)C(C)(C)C)cc1` [Compound 92], the pIC50 is 5.00 to 6.30 in the experiment on MOLT-4 (setting [1]) and 7.00 to 7.70 in the experiment with RS4; 11 (setting [2]).
Take `Cc1ncsc1-c1ccc([C@H](C)NC(=O)[C@@H]2C[C@@H](O)CN2C(=O)[C@@H](NC(=O)CCCCCCC(=O)N2CCN(C[C@]3(C)CCC(c4ccc(Cl)cc4)=C(CN4CCN(c5ccc(C(=O)NS(=O)(=O)c6ccc(N[C@H](CCN7CCOC8(CCC8)C7)CSc7ccccc7)c(S(=O)(=O)C(F)(F)F)c6)cc5)CC4)C3)CC2)C(C)(C)C)cc1` [Compound 93]: the pIC50 with MOLT-4 (setting [1]) and in the experiment with RS4; 11 (setting [2]) was 5.00 to 6.30 throughout.
For the compound `Cc1ncsc1-c1ccc([C@H](C)NC(=O)[C@@H]2C[C@@H](O)CN2C(=O)[C@@H](NC(=O)CCCCCCC(=O)N2CCN(C[C@]3(C)CCC(c4ccc(Cl)cc4)=C(CN4CCN(c5ccc(C(=O)NS(=O)(=O)c6ccc(N[C@H](CCN7C[C@H]8COC[C@H]8C7)CSc7ccccc7)c(S(=O)(=O)C(F)(F)F)c6)cc5)CC4)C3)CC2)C(C)(C)C)cc1` [Compound 95], the pIC50 in the experiment with MOLT-4 (setting [1]) and with RS4; 11 (setting [2]) was more than 7.70 each time.
